Values joined by “and” are separate entries in the source; they are usually repeats but may differ in a detail not shown here. Equal entries are not always repeated. Ends that are not written are not given here.

One experiment concerns the target T1, bovine MC4-R (Bos taurus, UniProt Q9GLJ8).
T1 construct: expressed in transfected cells; host or cells: human embryonic kidney 293 cells (ATCC CRL 1573), transient co-transfection of pcDNA3.1-bMC4R with the pGL2-promoter/CRE luciferase reporter
The experiment can be described thus: CRE-luciferase reporter assay in human embryonic kidney 293 cells transiently co-transfected with bovine MC4-R. Format: cell-based. As to conditions: for Luciferase Activity: 18 hrs, transiently transfected human embryonic kidney 293 cells. The protocol: The phagemid pBluescript-bMC4-R (10 μg) containing a full-length (1.9 kb) bovine MC4-R cDNA (SEQ ID NO:1) was digested using restriction endonucleases EcoRI (20 units, Gibco-BRL) and XhoI (20 units, Gibco-BRL) at 37° C. for 1 hr following the supplier's instructions. The resulting 1.9 kb bovine MC4-R cDNA fragment was then subcloned into the mammalian cell expression plasmid pcDNA3.1(+) (Invitrogen, Carlsband, Calif.) following standard cloning procedures (Sambrook et al., 1989, Molecular Cloning, A Laboratory Manual, Second Edition, Cold Spring Harbor Laboratory Press). The resulting bovine MC4-R expression plasmid, pcDNA3.1-bMC4R, was then used in conjunction with a reporter plasmid, pGL2-promoter/CRE (cyclic AMP activated transcription binding protein response element), to transiently co-transfect human embryonic kidney 293 cells (ATCC CRL 1573) using the LipofectAMINE PLUS reagent kit (Gibco-BRL, catalog no. 10964-013) following the supplier's instructions.
The pGL2-promoter/CRE plasmid, containing tandem cAMP activated transcription binding protein response elements from the rat somatostatin gene (Vallejo, et al., 1992, J. Biol. Chem. 267(18):12868-12875) and human chorionic gonadotropin (hCG) gene (Deutsch, et al., 1987, J. Biol. Chem. 262(25):12169-12174), was prepared following standard cloning procedures (Sambrook et al., supra). In brief, the plasmid was constructed by inserting a double stranded oligonucleotide linker, CRE-2 (SEQ ID NO:22), containing the rat somatostatin CRE sequence (5′-[…]-3′; SEQ ID NO:20), the human chorionic gonadotropin (hCG) CRE sequence (5′-AAATTGACGTCATGGTAA-3′; SEQ ID NO:21), and MluI and BglII cohesive ends, into the MluI and BglII sites, respectively, of plasmid pGL2-promoter (Promega, Madison, Wis., catalog no. E1631). The CRE-2 linker had the structure:
The CRE-2 oligonuceotide linker was prepared by first synthesizing the CREA and CREB oligonucleotides, including the MluI and BglII cohesive ends, using a DNA synthesizer Model 370 from PE-Biosystems (Foster City, Calif.). […]

For experiment [1], the target named is bovine melanocortin 4 receptor protein (MC4-R) (bovine). The experiment can be described thus: cell-based or functional assay.

T1 sequence (Q9GLJ8 whole entry): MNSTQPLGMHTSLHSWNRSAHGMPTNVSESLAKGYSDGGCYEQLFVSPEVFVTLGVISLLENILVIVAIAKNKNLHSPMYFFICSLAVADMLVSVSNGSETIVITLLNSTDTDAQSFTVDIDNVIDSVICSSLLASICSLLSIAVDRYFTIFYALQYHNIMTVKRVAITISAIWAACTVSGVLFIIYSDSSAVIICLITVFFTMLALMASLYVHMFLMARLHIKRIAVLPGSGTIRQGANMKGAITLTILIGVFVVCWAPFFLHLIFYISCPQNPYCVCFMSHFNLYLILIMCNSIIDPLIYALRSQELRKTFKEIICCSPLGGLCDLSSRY

With α-MSH, the “Activation of cloned bovine MC4-R expressed in 293 cells” value at bovine MC4-R (human embryonic kidney 293 cells) is on record as “activated”. For the same molecule, the “Luciferase Activity” value at bovine MC4-R (α-MSH 1 nM) is 24.80 and 26.67; at bovine MC4-R (α-MSH 10 nM), 35.13 and 37.13.

In the case of SYSMEHFRWGKPV (peptide, UniProt P01189 138-150, looked up, ends and bridges not checked) [human α-MSH], in experiment [1], the Luciferase Activity (CRE-luciferase reporter, 293 cells), 0 nM α-MSH (baseline without ligand) was 8.19 and 7.78; the Luciferase Activity (CRE-luciferase reporter, 293 cells), 1 nM α-MSH was 24.8 and 26.7; the Luciferase Activity (CRE-luciferase reporter, 293 cells), 10 nM α-MSH is 35.1 and 37.1.

For the origin of these results see patent US20030082678A1, “Methods and compositions for regulating body weight in bovine species” (priority 2001, published 2003).
